The test system of assay [1] is T-Rex 293 cell line SC3 cells having increased expression of androgen receptor protein due to exposure to doxycycline. In words: Cellular growth inhibition, T-Rex 293 SC3 cells with doxycycline-induced androgen receptor (CellTiter-Glo 2.0, 72 hours). The assay is classed as cell-based. The conditions noted are these: for GI50: T-Rex 293 SC3 cells with 10 ng/ml doxycycline (increased androgen receptor expression), 72 hours, CellTiter-Glo 2.0. The protocol:
(§1) Ability of the test compounds to inhibit proliferation of the foregoing cell types was evaluated according to the procedures set forth below.
(§2) The doxycycline-inducible androgen receptor protein expressing cell line was established using the following protocol: T-Rex 293 cells were purchased from Invitrogen (Cat #R71007) and transfected using Lipofectamine 2000 with the wild-type androgen receptor protein sequence cloned into the pcDNA4/TO vector. Transfected cells were selected using 400 μg/mL Zeocin (Invitrogen Cat #R25001). Following selection, single clones were raised and maintained in Dulbecco's Modified Eagle Medium (DMEM) supplemented with 10% w/w Tetracycline-free fetal bovine serum (FBS) and 250 μg/mL Zeocin. Clones were analyzed for expression of androgen receptor protein in the presence and absence of 10 ng/ml doxycycline (Sigma Cat #D9891), and a single doxycycline-inducible clone (hereinafter “SC3”) was selected for use in downstream assays.
(§3) The SC3 cells were seeded on poly-D-lysine coated, black clear-bottom 384-well plates at 2500/well, in 25 μL Phenol Red Free Dulbecco's Modified Eagle Medium (DMEM) supplemented with 10% w/w charcoal-dextran treated fetal bovine serum (FBS) and 1% w/w pen-strep, with or without 10 ng/ml doxycycline. Pen-Strep is a commercially available mixture of penicillin G and streptomycin, which is used in mammalian cell culture media to prevent bacterial contamination. Phenol Red Free Dulbecco's Modified Eagle Medium (DMEM) supplemented with 10% w/w charcoal-dextran treated fetal bovine serum (FBS) and 1% w/w pen-strep, with or without 10 ng/mL doxycycline is herein referred to as Treatment Medium. Following seeding of cells in the plates, the plates were spun at 300×g for 30 seconds, then equilibrated to room temperature for 30 minutes, and then deposited in a humidified tissue culture incubator maintained at 37° C. with 5% CO2.
(§4) At 24 hours after seeding of the cells, dilutions of test compound were prepared in DMSO and dissolved in Treatment Medium, to achieve a final DMSO concentration of 0.5% w/w, thereby providing the Test Compound Solution. A 25 μL aliquot of the Test Compound Solution was added to cells in the well plates. An equal volume of a solution containing DMSO and Treatment Medium was used as a negative control. Following treatment of cells with Test Compound Solution or said equal volume of a solution containing DMSO and Treatment Medium, the plates were spun at 300×g for 30 seconds, and then left in an incubator for 72 hours.
(§5) At the end of the treatment duration, cell viability was quantified with CellTiter-Glo 2.0 reagent (Promega Cat #G9243). For this purpose, plates were equilibrated to room temperature for 30 minutes, and then 25 μL of CellTiter-Glo 2.0 reagent was added to cells in the plate wells. Plates were then agitated on a shaker for two minutes at 500 rpm and subsequently incubated at room temperature for 10 minutes. Following incubation, the plates were spun at 3000×g for 30 seconds, then sealed with an optical adhesive cover, and luminescence readings were measured with an En Vision Plate Reader.
(§6) Data was normalized using zero luminescence for baseline. A four-parameter non-linear regression curve fit was applied to dose-response data in GraphPad Prism data analysis software to determine the half-maximal growth inhibitory concentration (GI50) for each test compound.
On the technique in general: ATP-based viability assays read luminescence as a measure of living cells.

Assay [2] relates to T-Rex 293 cell line SC3 cells lacking increased expression of androgen receptor protein. In words: Cellular growth inhibition, T-Rex 293 SC3 cells without doxycycline (CellTiter-Glo 2.0, 72 hours). The assay is classed as cell-based. The conditions noted are these: T-Rex 293 SC3 cells not exposed to doxycycline (no increased androgen receptor expression). As to the method:
as §1, §2, §3, §4, §5, §6

Assay [3] has as its system VCaP cells. In words: Cellular growth inhibition assay for VCaP cells (CellTiter-Glo 2.0, 72 hours). Particulars: for GI50: CellTiter-Glo 2.0. The assay is classed as cell-based, human. The protocol: Exemplary compounds were tested for ability to inhibit the proliferation of VCaP cells. VCap cells are a commercially available human prostate cancer cell line.
VCaP cells were purchased from American Type Cell Culture (ATCC Cat #CRL2876) and then seeded on poly-D-lysine coated, black clear-bottom 384-well plates at 5000/well in 25 μL Dulbecco's Modified Eagle Medium (DMEM) supplemented with 10% w/w Fetal bovine serum (FBS) and 1% w/w Pen-Strep. Pen-Strep is a commercially available mixture of penicillin G and streptomycin, which is used in mammalian cell culture media to prevent bacterial contamination. Dulbecco's Modified Eagle Medium (DMEM) supplemented with 10% w/w fetal bovine serum (FBS) and 1% w/w Pen-Strep is herein referred to as Treatment Medium. Following seeding of cells in the plates, the plates were spun at 300×g for 30 seconds, then equilibrated to room temperature for 30 minutes, and then deposited in a humidified tissue culture incubator maintained at 37° C. with 5% CO2.
as §4, §5, §6

For the compound `COc1cc(O[C@H]2CC[C@H](NC(=O)c3ccc(N4C[C@H]5CN(c6ccc(C7=N[C@@H](Cc8ncco8)c8nnc(C)n8-c8sc(C)c(C)c87)cc6)C[C@H]5C4)nn3)CC2)ccc1C#N` [Compound I-106, 6-[(3aR,6aS)-2-[4-[(9S)-4,5,13-trimethyl-9-(oxazol-2-ylmethyl)-3-thia-1,8,11,12-tetrazatricyclo[8.3.0.0^2,6]trideca-2 (6),4,7,10,12-pentaen-7-yl]phenyl]-1,3,3a,4,6,6a-hexahydropyrrolo[3,4-c]pyrrol-5-yl]-N-[4-(4-cyano-3-methoxy-phenoxy)cyclohexyl]pyridazine-3-carboxamide], the GI50 is less than 500 nM in assay [1]; less than 500 nM in assay [2] (72 h); less than 500 nM in assay [3] (Homo sapiens, VCaP, 72 h).
Consider `COc1cc(O[C@H]2CC[C@H](NC(=O)c3ccc(N4CCC5(CCC(c6ccc(C7=N[C@@H](C)c8nnc(C)n8-c8sc(C)c(C)c87)cc6C)CC5)C4)nn3)CC2)ccc1C#N` (some centres unmarked) [Compound I-61], for which the GI50 in assay [1], in assay [2] and in assay [3] (72 hours) was less than 500 nM in each case.
In the case of `COc1cc(O[C@H]2CC[C@H](NC(=O)c3ccc(N4CCC5(CCN(c6ccc(C7=N[C@@H](C)c8nnc(C)n8-c8sc(C)c(C)c87)cc6F)C5)C4)nn3)CC2)ccc1C#N` (stereo partly drawn) [Compound I-79, N-[4-(4-cyano-3-methoxy-phenoxy)cyclohexyl]-6-[7-[2-fluoro-4-[(9S)-4,5,9,13-tetramethyl-3-thia-1,8,11,12-tetrazatricyclo[8.3.0.0^2,6]trideca-2 (6),4,7,10,12-pentaen-7-yl]phenyl]-2,7-diazaspiro[4.4]nonan-2-yl]pyridazine-3-carboxamide], the GI50 in assay [1] is less than 500 nM; in assay [2] (72 h) it was less than 500 nM; in assay [3] (Homo sapiens, VCaP, 72 h), less than 500 nM.
Turning to `COc1cc(O[C@H]2CC[C@H](NC(=O)c3ccc(N4CC5(CC(C#Cc6ccc(C7=NC(Cc8ncco8)c8nnc(C)n8-c8sc(C)c(C)c87)cc6F)C5)C4)nn3)CC2)ccc1C#N` (single isomer, unassigned) [Compound I-127], the GI50 in assay [1], in assay [2] and in assay [3] (72 hours) was less than 500 nM in each case.
For the compound `COc1cc(O[C@H]2CC[C@H](NC(=O)c3ccc(N4C[C@H]5CN(c6ccc(C7=N[C@@H](C)c8nnc(C)n8-c8sc(C)c(C)c87)cc6)C[C@H]5C4)nn3)CC2)ccc1C#N` [Compound I-47], the GI50 in assay [1] is less than 500 nM; in assay [2] (72 h), less than 500 nM; in assay [3] (Homo sapiens, VCaP, 72 h), less than 500 nM.
Take `COc1cc(O[C@H]2CC[C@H](NC(=O)c3ccc(N4CCC5(CCC(c6ccc(C7=N[C@@H](C)c8nnc(C)n8-c8sc(C)c(C)c87)cc6Cl)CC5)C4)nn3)CC2)ccc1C#N` (some centres unmarked) [Compound I-84]: the concentration for 50% growth inhibition (GI50) in assay [1] was less than 500 nM; in assay [2] it was less than 500 nM; in assay [3] (Homo sapiens, VCaP, 72 h) it was less than 500 nM.
As to `COC[C@@H]1N=C(c2ccc(C#CC3CC4(C3)CN(c3ccc(C(=O)N[C@H]5CC[C@H](Oc6ccc(C#N)c(OC)c6)CC5)nn3)C4)cc2)c2c(sc(C)c2C)-n2c(C)nnc21` [Compound I-32, N-[4-(4-cyano-3-methoxy-phenoxy)cyclohexyl]-6-[6-[2-[4-[(9R)-9-(methoxymethyl)-4,5,13-trimethyl-3-thia-1,8,11,12-tetrazatricyclo[8.3.0.0^2,6]trideca-2 (6),4,7,10,12-pentaen-7-yl]phenyl]ethynyl]-2-azaspiro[3.3]heptan-2-yl]pyridazine-3-carboxamide], the GI50 in assay [1] was less than 500 nM; in assay [2] (72 h), less than 500 nM; in assay [3] (Homo sapiens, VCaP, 72 h) it was less than 500 nM.
For `COc1cc(O[C@H]2CC[C@H](NC(=O)c3ccc(N4CCC5(CCN(c6ccc(C7=NC(Cc8ncco8)c8nnc(C)n8-c8sc(C)c(C)c87)cc6C(F)(F)F)CC5)C4)nn3)CC2)ccc1C#N` (some centres unmarked) [Compound I-129], the GI50 in assay [1], in assay [2] and in assay [3] (72 hours) was less than 500 nM in each case.
Regarding `COc1cc(O[C@H]2CC[C@H](NC(=O)c3ccc(N4CCC5(CCN(c6ccc(C7=N[C@@H](C)c8nnc(C)n8-c8sc(C)c(C)c87)cc6)CC5)C4)nn3)CC2)ccc1C#N` [Compound I-70], the GI50 in assay [1] was less than 500 nM; in assay [2] (72 h), less than 500 nM; in assay [3] (Homo sapiens, VCaP, 72 h), less than 500 nM.
Take `COc1cc(O[C@H]2CC[C@H](NC(=O)c3ccc(N4CC5(CCC5)C5(CCN(c6ccc(C7=N[C@@H](C)c8nnc(C)n8-c8sc(C)c(C)c87)cc6)CC5)C4)nn3)CC2)ccc1C#N` [Compound I-114]: the 50% growth inhibitory concentration (GI50) in assay [1] is less than 500 nM; in assay [2] (72 h) it was less than 500 nM; in assay [3] (Homo sapiens, VCaP, 72 h), less than 500 nM.
Consider `COc1cc(O[C@H]2CC[C@H](NC(=O)c3ccc(N4CCC5(CC4)CC(Oc4ccc(C6=N[C@@H](Cc7ncco7)c7nnc(C)n7-c7sc(C)c(C)c76)cc4)C5)nn3)CC2)ccc1C#N` [Compound I-83, N-[4-(4-cyano-3-methoxy-phenoxy)cyclohexyl]-6-[2-[4-[(9S)-4,5,13-trimethyl-9-(oxazol-2-ylmethyl)-3-thia-1,8,11,12-tetrazatricyclo[8.3.0.0^2,6]trideca-2 (6),4,7,10,12-pentaen-7-yl]phenoxy]-7-azaspiro[3.5]nonan-7-yl]pyridazine-3-carboxamide], for which the “Ratio of GI50's” value came out at 1 in assay [1] (GI50 of the top compound in the pair divided by GI50 of the lower compound, T-Rex 293 SC3 cells with doxycycline-induced androgen receptor) and 1 in assay [3] (GI50 of the top compound in the pair divided by GI50 of the lower compound). Moreover, the GI50 is less than 500 nM in assay [1]; less than 500 nM in assay [2] (72 h); less than 500 nM in assay [3] (Homo sapiens, VCaP, 72 h).
Take `COc1cc(O[C@H]2CC[C@H](NC(=O)c3ccc(N4CCC5(CCC(c6ccc(C7=N[C@@H](C)c8nnc(C)n8-c8sc(C)c(C)c87)c(Cl)c6)CC5)C4)nn3)CC2)ccc1C#N` (single isomer, unassigned) [Compound I-64]: the 50% growth inhibitory concentration (GI50) in assay [1] was less than 500 nM; in assay [2] (72 h), less than 500 nM; in assay [3] (Homo sapiens, VCaP, 72 h) it was 500 to 1500 nM.
For `COc1cc(O[C@H]2CC[C@H](NC(=O)c3ccc(N4CCC5(CCC(c6ccc(C7=N[C@@H](C)c8nnc(C)n8-c8sc(C)c(C)c87)cc6C)CC5)C4)nn3)CC2)ccc1C#N` (some centres unmarked) [Compound I-60], the GI50 was less than 500 nM in assay [1]; less than 500 nM in assay [2] (72 h); less than 500 nM in assay [3] (Homo sapiens, VCaP, 72 h).
Take `COc1cc(O[C@H]2CC[C@H](NC(=O)c3ccc(N4CCC5(CCN(c6ccc(C7=N[C@@H](C)c8nnc(C)n8-c8sc(C)c(C)c87)cc6)CC5)C4)nn3)CC2)ccc1C#N` [Compound I-71]: the GI50 in assay [1], in assay [2] and in assay [3] (72 hours) was less than 500 nM throughout.
For the compound `COc1cc(O[C@H]2CC[C@H](NC(=O)c3ccc(N4C[C@@H]5CN(c6ccc(C7=N[C@@H](C)c8nnc(C)n8-c8sc(C)c(C)c87)cc6F)C[C@@H]5C4)nn3)CC2)ccc1C#N` [Compound I-76], the GI50 is less than 500 nM in assay [1]; less than 500 nM in assay [2] (72 h); less than 500 nM in assay [3] (Homo sapiens, VCaP, 72 h).
For the compound `COc1cc(O[C@H]2CC[C@H](NC(=O)c3ccc(N4CCC5(CCN(c6ccc(C7=N[C@@H](C)c8nnc(C)n8-c8sc(C)c(C)c87)cc6)CC5(F)F)C4)nn3)CC2)ccc1C#N` (some centres unmarked) [Compound I-116], the concentration for 50% growth inhibition (GI50) in assay [1], in assay [2] and in assay [3] (72 hours) was less than 500 nM each time.

The GI50 is the concentration that inhibits growth by half. Read a high GI50 as lower sensitivity of the cells.
